According to ChEMBL document CHEMBL1122678, “Structural correlations of choline acetyltransferase inhibitors: trans-N-(carboxymethyl)-4-(beta-1-naphthylvinyl)pyridinium bromide and cis-N-(2-aminoethyl)-4-(beta-1-naphthylvinyl)-3-methylpyridinium bromide hydrobromide” (J Med Chem, 1984):

How the values were obtained:
[1] = (§1) Inhibitory activity was determined; details: read-out: I50
[2] = as §1

SMILES	IC50 [1] [µM]	I23 [2] [µM]
C(=C\c1cccc2ccccc12)/c1ccncc1	25	
C(=C\c1cccc2ccccc12)/c1ccncc1 (stereo in doubt; cis) [listing 1 of 2 here]	50	
C(=C\c1cccc2ccccc12)/c1ccncc1 (stereo in doubt; cis) [listing 2 of 2 here]		400
C(=C\c1cccc2ccccc12)/c1ccncc1 (stereo in doubt; trans)	5	
